The record followed here is US20040224958A1, “Pyridopyrimidinone derivatives for treatment of neurodegenerative disease” (priority 2000, published 2004).

Like-named read-outs stand apart in the source and are kept apart here.

The target in one assay is cdk4/D (Homo sapiens, UniProt P11802). Put plainly: Cyclin-Dependent Kinase 4 (cdk4) Assay. The class given is biochemical. The procedure:
A typical assay, for instance, measures inhibitory activity against the cyclin D dependent kinase 4 enzyme (cdk4/D). […] The cdk4 assay was carried out as follows.
Cyclin-Dependent Kinase 4 (cdk4) Assay
All components except the ATP were added to the wells, and the plate was placed on a plate mixer for 2 minutes. The reaction was started by adding [^32P]ATP and the plate was incubated at 25° C. for 15 minutes. The reaction was terminated by addition of 0.1 mL of 20% trichloroacetic acid (TCA). The plate was kept at 4° C. for at least 1 hour to allow the substrate to precipitate. The wells were then washed five times with 0.2 mL of 10% TCA and ^32P incorporation was determined with a beta plate counter (Wallac Inc., Gaithersburg, Md.).

For another assay, the target named is cdk2/cyclinE (Homo sapiens, UniProt P24941). Put plainly: Cyclin-Dependent Kinase Assay cdk2/cyclinE. As to conditions: cdk2/E IC50.
In a further assay the target is Cdk5/p25 (Homo sapiens, UniProt Q00535). Put plainly: Cyclin-Dependent Kinase 5 High Throughput Screening (cdk5-HTS) Assay. The class given is biochemical. As to conditions: high throughput screen. The protocol: Cyclin-Dependent Kinase 5 High Throughput Screening (cdk5-HTS) Assay
Enzyme assays for IC50 determinations were performed in 96-Pierce Reacti-Bind™ White Opaque Glutatione Coated Plates (Cat. No. 15240B).
The total volume was 0.100 mL containing a final concentration of 50 mM TRIS (tris[hydroxymethyl]aminomethane) at pH 7.4, 50 mM NaCl, 10 mM MgCl2, 5 mM dithiothreitol, 20 μM ATP containing 16 μCi/mL of Redivue[y33P]ATP (Amersham Pharmacia Biotech Cat. No. AH9968), 1.0 μg/mL Cdk5/p25, 20 μg/mL GST-RbCOOH, and appropriate dilutions of a compound of the present invention. The reaction was started by adding[^33P]ATP, and the plate was shaken for 30 seconds, then incubated at room temperature for 30 minutes. The reaction was terminated by addition of 0.05 mL of 120 mM EDTA. The plate was kept at room temperature for 45 minutes to allow substrate to bind to the walls of the plate. The wells were then washed three times with 0.2 mL of 1×PBS. Once thoroughly dry, 0.140 mL of MicroScint™2O (Packard Bioscience Cat. No. 87-9081) cocktail was added to all wells. The incorporation of ^33P was determined with a beta plate counter (Packard Topcount).

The next assay deals with cdc2/cyclinB (Homo sapiens, UniProt P06493). Put plainly: Cyclin-Dependent Kinase Assay cdc2/cyclinB.
cdc2/cyclinB, sequence (P06493 whole entry): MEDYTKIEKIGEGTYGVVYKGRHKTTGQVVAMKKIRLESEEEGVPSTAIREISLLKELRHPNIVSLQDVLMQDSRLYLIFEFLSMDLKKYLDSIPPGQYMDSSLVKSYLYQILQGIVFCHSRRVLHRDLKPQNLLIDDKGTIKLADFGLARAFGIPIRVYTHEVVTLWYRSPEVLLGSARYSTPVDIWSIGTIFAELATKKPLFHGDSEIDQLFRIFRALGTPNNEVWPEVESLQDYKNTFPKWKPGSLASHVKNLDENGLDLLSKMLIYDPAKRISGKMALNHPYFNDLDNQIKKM
cdc2/cyclinB, sequence (P14635 whole entry, further chain): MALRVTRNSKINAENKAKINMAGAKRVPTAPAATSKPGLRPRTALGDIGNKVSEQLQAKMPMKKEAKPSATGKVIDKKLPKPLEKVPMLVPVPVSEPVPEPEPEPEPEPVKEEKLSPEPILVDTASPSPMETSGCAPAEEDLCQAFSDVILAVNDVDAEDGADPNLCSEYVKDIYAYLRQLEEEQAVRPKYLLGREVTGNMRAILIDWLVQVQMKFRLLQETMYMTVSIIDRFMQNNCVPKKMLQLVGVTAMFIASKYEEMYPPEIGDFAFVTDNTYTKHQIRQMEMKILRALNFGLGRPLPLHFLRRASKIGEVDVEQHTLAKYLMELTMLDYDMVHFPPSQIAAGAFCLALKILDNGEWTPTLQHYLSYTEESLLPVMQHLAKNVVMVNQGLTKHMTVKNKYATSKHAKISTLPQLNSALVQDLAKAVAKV
The next assay concerns the target cdk2/cyclinA (Homo sapiens, UniProt P24941). Put plainly: Cyclin-Dependent Kinase Assay cdk2/cyclinA. As to conditions: cdk2/A IC50.

cdk4/D, sequence (P11802 whole entry): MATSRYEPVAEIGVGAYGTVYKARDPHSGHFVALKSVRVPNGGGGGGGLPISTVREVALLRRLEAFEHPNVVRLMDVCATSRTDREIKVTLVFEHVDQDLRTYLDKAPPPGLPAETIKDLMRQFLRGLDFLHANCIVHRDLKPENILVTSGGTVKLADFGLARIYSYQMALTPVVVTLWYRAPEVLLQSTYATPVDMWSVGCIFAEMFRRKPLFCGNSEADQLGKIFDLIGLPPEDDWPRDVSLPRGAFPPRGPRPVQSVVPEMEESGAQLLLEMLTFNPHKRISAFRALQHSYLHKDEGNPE
cdk4/D, sequence (P24385 whole entry, further chain): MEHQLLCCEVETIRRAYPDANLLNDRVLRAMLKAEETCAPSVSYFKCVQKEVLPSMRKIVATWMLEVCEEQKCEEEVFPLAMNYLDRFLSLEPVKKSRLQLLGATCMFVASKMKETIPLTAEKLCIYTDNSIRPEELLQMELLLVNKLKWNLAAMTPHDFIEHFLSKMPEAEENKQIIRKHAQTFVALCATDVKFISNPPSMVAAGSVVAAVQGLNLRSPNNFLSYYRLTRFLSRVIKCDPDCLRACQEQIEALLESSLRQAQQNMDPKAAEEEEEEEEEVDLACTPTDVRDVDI

Turning to “8-Butyl-2-(2-fluoro-4-nitro-phenylamino)-8H-pyrido[2,3-d]pyrimidin-7-one [Example 367]”, on cdk4/D (read-out: cdk4/D IC50), the IC50 amounted to 2.3 µM.
Regarding `CCNc1nc(Nc2ccccc2)ncc1C=CC(=O)OCC` [Example 17, Ethyl 3-(4-Ethylamino-2-phenylamino-pyrimidin-5-yl)acrylate], the IC50 on cdk4/D (Table 2, Formula II compounds, read-out: cdk4 IC50) was 2 µM.
`CCn1c(=O)ccc2cnc(Nc3ccccc3OCc3ccccc3)nc21` [Example 56, 2-Benzyloxyphenylamino-8-ethyl-8H-pyrido[2,3-d]pyrimidin-7-one]: the IC50 at cdk4/D (Table 1, read-out: cdk4/D IC50) amounted to 25 µM.
On to `CCn1c(=O)ccc2cnc(Nc3cc(C(F)(F)F)ccc3F)nc21` [Example 302, 8-Ethyl-2-(2-fluoro-5-trifluoromethyl-phenylamino)-8H-pyrido[2,3-d]pyrimidin-7-one], for which the IC50 at cdk2/cyclinE is 2.3 µM; at Cdk5/p25 it was 0.65 µM.
In the case of `CCn1c(=O)ccc2cnc(Nc3ccc(OC(F)(F)F)c(Br)c3)nc21` [Example 306, 2-(3-Bromo-4-trifluoromethoxy-phenylamino)-8-ethyl-8H-pyrido[2,3-d]pyrimidin-7-one], at cdk4/D (read-out: cdk4/D IC50), the IC50 was determined as 3.6 µM.
`CCn1c(=O)ccc2cnc(Nc3ccc(C)c(NS(C)(=O)=O)c3)nc21` [Example 307, N-[5-(8-Ethyl-7-oxo-7,8-dihydro-pyrido[2,3-d]pyrimidin-2-ylamino)-2-methyl-phenyl]-methanesulfonamide]: the IC50 on cdk4/D (read-out: cdk4/D IC50) came to 2.8 µM.
Still for that read-out and setting: to `CCn1c(=O)ccc2cnc(Nc3ccc(NC(C)=O)c(C#N)c3)nc21` [Example 308, N-[2-Cyano-4-(8-ethyl-7-oxo-7,8-dihydro-pyrido[2,3-d]pyrimidin-2-ylamino)-phenyl]-acetamide] belongs 3.2 µM.
Consider `CCCn1c(=O)ccc2cnc(Nc3ccc(C#N)c(C#N)c3)nc21` [Example 339, 4-(7-Oxo-8-propyl-7,8-dihydro-pyrido[2,3-d]pyrimidin-2-ylamino)-phthalonitrile], for which the figures for the IC50 at cdk2/cyclinE and at Cdk5/p25 were 1.8 µM and 0.83 µM, respectively.
For the molecule `CCCn1c(=O)ccc2cnc(Nc3ccc4c(c3)NCC4)nc21` [Example 352, 2-(2,3-Dihydro-1H-indol-6-ylamino)-8-propyl-8H-pyrido[2,3-d]pyrimidin-7-one], the IC50 against Cdk5/p25 amounted to 2.9 µM.
Turning to `CCCn1c(=O)ccc2cnc(Nc3ccc(OC(F)(F)F)c(Br)c3)nc21` [Example 363, 2-(3-Bromo-4-trifluoromethoi-phenylamino)-8-propyl-8H-pyrido[2,3-d]pyrimidin-7-one], on cdk4/D (read-out: cdk4/D IC50), the IC50 is 1.9 µM.
Regarding `CCCCn1c(=O)ccc2cnc(Nc3ccc(C)c(NS(C)(=O)=O)c3)nc21` [Example 405, N-[5-(8-Butyl-7-oxo-7,8-dihydro-pyrido[2,3-d]pyrimidin-2-ylamino)-2-methyl-phenyl]-methanesulfonamide], the IC50 at cdk4/D (read-out: cdk4/D IC50) amounted to 3.1 µM.
Regarding `Cc1cc(Nc2ncc3ccc(=O)n(C(C)C)c3n2)ccc1O` [Example 435, 2-(4-Hydroxy-3-methyl-phenylamino)-8-isopropyl-8H-pyrido[2,3-d]pyrimidin-7-one], the IC50 is 2.6 µM on cdk4/D (read-out: cdk4/D IC50) and 1.3 µM against Cdk5/p25.
Regarding `CC(C)n1c(=O)ccc2cnc(Nc3ccc4c(c3)CCN4)nc21` [Example 437, 2-(2,3-Dihydro-1H-indol-5-ylamino)-8-isopropyl-8H-pyrido[2,3-d]pyrimidin-7-one], the IC50 on cdk4/D (read-out: cdk4/D IC50) was 3.2 µM.
Consider `CC(=O)Nc1ccc(Nc2ncc3ccc(=O)n(C(C)C)c3n2)cc1C#N` [Example 445, N-[2-Cyano-4-(8-isopropyl-7-oxo-7,8-dihydro-pyrido[2,3-d]pyrimidin-2-ylamino)-phenyl]-acetamide], for which, at cdk4/D (read-out: cdk4/D IC50), the IC50 was 2.7 µM.
Still for that read-out and setting: the value for `CCC(C)n1c(=O)ccc2cnc(Nc3ccc(C)c(Br)c3)nc21` (stereo not drawn) [Example 478, 2-(3-Bromo-4-methyl-phenylamino)-8-sec-butyl-8H-pyrido[2,3-d]pyrimidin-7-one] was 1.3 µM; that for `CCC(C)n1c(=O)ccc2cnc(Nc3ccc(Br)c(C)c3)nc21` (stereo not drawn) [Example 479, 2-(4-Bromo-3-methyl-phenylamino)-8-sec-butyl-8H-pyrido[2,3-d]pyrimidin-7-one] was 1.7 µM.
Take `CCC(C)n1c(=O)ccc2cnc(Nc3ccc(C)c(NS(C)(=O)=O)c3)nc21` (stereo not drawn) [Example 480, N-[5-(8-sec-Butyl-7-oxo-7,8-dihydro-pyrido[2,3-d]pyrimidin-2-ylamino)-2-methyl-phenyl]-methanesulfonamide]: the IC50 on cdk4/D (read-out: cdk4/D IC50) amounted to 2.9 µM.
In turn, `CCC(CC)n1c(=O)ccc2cnc(Nc3ccc(C(F)(F)F)c([N+](=O)[O-])c3)nc21` [Example 489, 8-(1-Ethyl-propyl)-2-(3-nitro-4-trifluoromethyl-phenylamino)-8H-pyrido[2,3-d]pyrimidin-7-one] yielded an IC50 on Cdk5/p25 of 3.5 µM.
For `O=c1ccc2cnc(Nc3ccc4c(c3)CCN4)nc2n1C1CCCC1` [Example 553, 8-Cyclopentyl-2-(2,3-dihydro-1H-indol-5-ylamino)-8H-pyrido[2,3-d]pyrimidin-7-one], the IC50 amounted to 2.5 µM at cdc2/cyclinB and 0.099 µM on cdk4/D (read-out: cdk4/D IC50).
On to `CC(=O)Nc1c(F)cc(Nc2ncc3ccc(=O)n(CC4CC4)c3n2)cc1Cl` [Example 579, N-[2-Chloro4-(8-cyclopropylmethyl-7-oxo-7,8-dihydro-pyrido[2,3-d]pyrimidin-2-ylamino)-6-fluoro-phenyl]-acetamide], for which the IC50 amounted to 3.9 µM against cdk2/cyclinA, 2.8 µM at cdk4/D (read-out: cdk4/D IC50) and 2.9 µM on cdk2/cyclinE.
Regarding `O=c1ccc2cnc(Nc3ccc4c(c3)CCN4)nc2n1CC1CC1` [Example 581, 8-Cyclopropylmethyl-2-(2,3-dihydro-1H-indol-5-ylamino)-8H-pyrido[2,3-d]pyrimidin-7-one], the IC50 came out at 1.6 µM on cdc2/cyclinB and 0.42 µM at cdk4/D (read-out: cdk4/D IC50).
Take `COc1ccc(Nc2ncc3ccc(=O)n(CC(F)(F)F)c3n2)cc1F` [Example 602, 2-(3-Fluoro-4-methoxy-phenylamino)-8-(2,2,2-trifluoro-ethyl)-8H-pyrido[2,3-d]pyrimidin-7-one]: the IC50 at cdc2/cyclinB was 1.8 µM; on cdk4/D (read-out: cdk4/D IC50), 1.3 µM; on Cdk5/p25, 0.18 µM.
For the molecule `N#Cc1ccc(Nc2ncc3ccc(=O)n(CC(F)(F)F)c3n2)cc1C#N` [Example 603, 4-[7-Oxo-8-(2,2,2-trifluoro-ethyl)-7,8-dihydro-pyrido[2,3-d]pyrimidin-2-ylamino]-phthalonitrile], the IC50 against Cdk5/p25 is 1.2 µM.
For `CC(=O)Nc1cc(Nc2ncc3ccc(=O)n(CC(F)(F)F)c3n2)ccc1C#N` [Example 604, N-{2-Cyano-5-[7-oxo-8-(2,2,2-trifluoro-ethyl)-7,8-dihydro-pyrido[2,3-d]pyrimidin-2-ylamino]-phenyl}-acetamide], the IC50 was 3.2 µM on cdk4/D (read-out: cdk4/D IC50) and 2 µM on Cdk5/p25.
Take `O=c1ccc2cnc(Nc3ccc(F)c(F)c3)nc2n1CC(F)(F)F` [Example 607, 2-(3,4-Difluoro-phenylamino)-8-(2,2,2-trifluoro-ethyl)-8H-pyrido[2,3-d]pyrimidin-7-one]: the IC50 came to 1.4 µM on cdk4/D (read-out: cdk4/D IC50) and 0.61 µM against Cdk5/p25.
Consider `O=c1ccc2cnc(Nc3cc(F)cc(F)c3)nc2n1CC(F)(F)F` [Example 609, 2-(3,5-Difluoro-phenylamino)-8-(2,2,2-trifluoro-ethyl)-8H-pyrido[2,3-d]pyrimidin-7-one], for which the IC50 against Cdk5/p25 turned out to be 3.2 µM.
`O=c1ccc2cnc(Nc3cccc(C(F)(F)F)c3)nc2n1CC(F)(F)F` [Example 611, 8-(2,2,2-Trifluoro-ethyl)-2-(3-trifluoromethyl-phenylamino)-8H-pyrido[2,3-d]pyrimidin-7-one] gave an IC50 against Cdk5/p25 of 3.3 µM.
Turning to `Cn1c(=O)ccc2cnc(Nc3ccc(O)c(Cl)c3)nc21` [Example 616, 2-(3-Chloro-4-hydroxy-phenylamino)-8-methyl-8H-pyrido[2,3-d]pyrimidin-7-one], the results for the IC50 at cdk2/cyclinE and at Cdk5/p25 were 3.8 µM and 2.2 µM, respectively.
The molecule `COc1cc(Nc2ncc3ccc(=O)n(C)c3n2)cc(OC)c1OC` [Example 619, 8-Methyl-2-(3,4,5-trimethoxy-phenylamino)-8H-pyrido[2,3-d]pyrimidin-7-one] registered an IC50 on Cdk5/p25 of 1.7 µM.
Same read-out and setting: to `Cn1c(=O)ccc2cnc(Nc3ccc(C#N)c(C(F)(F)F)c3)nc21` [Example 620, 4-(8-Methyl-7-oxo-7,8-dihydro-pyrido[2,3-d]pyrimidin-2-ylamino)-2-trifluoromethyl-benzonitrile] belongs 0.42 µM.
